Assay results as given in the supplement of paper PMC11061612.

How the values were obtained:
[1] = system: 22RV1 (Prostate Carcinoma); assay: combination Emax (second highest fraction inhibited in the dose matrix, 72 h); higher = more inhibition; extreme values may be limits of the assay
In short: (§1)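 Bliss excess equals the observed combination effect minus the expected value EA + EB − EA·EB, where EA and EB are the effects of each agent alone. Combination Emax is the second-highest inhibition within the matrix. Inhibition was scaled from CellTiter-Glo 2.0 luminescence, with 0 set by vehicle wells and 1 by blank wells, after 72 hours of two-drug dosing of cells plated in 1536-well plates.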

[2] = system: JHU-022 (Oral Cavity Carcinoma); assay: as above
In short: as §1

HCC70 (Breast Carcinoma) [3] = assay: as above
In short: as §1

[4] = system: SW620 (Colorectal Carcinoma); assay: Bliss excess, mean over the matrix (fraction); higher = more synergy
In short: as §1

[5] = system: LU-165 (Small Cell Lung Carcinoma); assay: as above
In short: as §1

[6] = system: MDA-MB-436 (Breast Carcinoma); assay: as above
In short: as §1

[7] = system: JHH-2 (Hepatocellular Carcinoma); assay: as above
In short: as §1

[8] = system: NCI-H1651 (Lung Adenocarcinoma); assay: as above
In short: as §1

WM1552C (Melanoma) = assay: as above
In short: as §1

[9] = system: HCC1395 (Breast Carcinoma); assay: as above
In short: as §1

[10] = system: 22RV1 (Prostate Carcinoma); assay: as above
In short: as §1

[11] = system: NCI-H441 (Lung Adenocarcinoma); assay: as above
In short: as §1

PEO1 (Ovarian Carcinoma) = assay: as above
In short: as §1

[12] = system: SK-HEP-1 (Hepatocellular Carcinoma); assay: as above
In short: as §1

[13] = system: KYSE-220 (Esophageal Squamous Cell Carcinoma); assay: as above
In short: as §1

[14] = system: JHU-022 (Oral Cavity Carcinoma); assay: as above
In short: as §1

EB2 (Burkitt's Lymphoma) = assay: as above
In short: as §1

HCC70 (Breast Carcinoma) [15] = assay: as above
In short: as §1

[16] = system: UACC-812 (Breast Carcinoma); assay: as above
In short: as §1

[17] = system: MHH-ES-1 (Ewing's Sarcoma); assay: as above
In short: as §1

Q: For `Cc1cc2ncnn2cc1Nc1ncc2c(n1)n(C1CCOCC1)c(=O)n2C` [AZD7648] + CCN(CCO)CCCOc1ccc2c(Nc3cc(CC(=O)Nc4cccc(F)c4)[nH]n3)ncnc2c1 [AZD2811] (first compound max 10 µM, 7x7, partner max 1 µM), which “combination Emax” value [1] is on record?
A: The value was 0.396.

Q: What about the “combination Emax” value [2] of the same molecule?
A: The value was 0.4.

Q: And the “combination Emax” value (HCC70 (Breast Carcinoma) [3])?
A: The value was 0.629.

Q: What about the Bliss excess [4] of the same molecule?
A: The Bliss excess was 0.0357.

Q: And the Bliss excess [5]?
A: The Bliss excess was -0.0339.

Q: What about the Bliss excess [6] of the same molecule?
A: Its Bliss excess is -0.0452.

Q: And the Bliss excess [7]?
A: The Bliss excess was -0.0763.

Q: What about the Bliss excess [8] of the same molecule?
A: The Bliss excess was 0.0404.

Q: And the Bliss excess (WM1552C (Melanoma))?
A: The Bliss excess was 0.0025.

Q: And the Bliss excess [9]?
A: The Bliss excess was -0.0181.

Q: And the Bliss excess [10]?
A: Its Bliss excess is -0.022.

Q: What about the Bliss excess [11] of the same molecule?
A: Its Bliss excess is -0.0502.

Q: What about the Bliss excess (PEO1 (Ovarian Carcinoma)) of the same molecule?
A: Its Bliss excess is -0.0141.

Q: And the Bliss excess [12]?
A: Its Bliss excess is 0.0517.

Q: What about the Bliss excess [13] of the same molecule?
A: Its Bliss excess is 0.0544.

Q: And the Bliss excess [14]?
A: Its Bliss excess is 0.028.

Q: And the Bliss excess (EB2 (Burkitt's Lymphoma))?
A: The Bliss excess was 0.0607.

Q: And the Bliss excess (HCC70 (Breast Carcinoma) [15])?
A: The Bliss excess was -0.0203.

Q: And the Bliss excess [16]?
A: The Bliss excess was 0.0276.

Q: And the Bliss excess [17]?
A: Its Bliss excess is 0.0263.

Q: Which results are given for `N#Cc1cnc(Nc2cc(NC[C@H]3CNCCO3)c(C(F)(F)F)cn2)cn1` [SRA737] + O=c1[nH]cc(F)c(=O)[nH]1 [5-Fluorouracil] (first compound max 10 µM, 7x7, partner max 20 µM)?
A: combination Emax [1]: 0.616; combination Emax [2]: 0.513; combination Emax (HCC70 (Breast Carcinoma) [3]): 0.743; Bliss excess [4]: -0.0353; Bliss excess [5]: -0.082; Bliss excess [6]: 0.0202; Bliss excess [7]: 0.0695; Bliss excess [8]: -0.0323; Bliss excess (WM1552C (Melanoma)): 0.0347; Bliss excess [9]: -0.0584; Bliss excess [10]: 0.0268; Bliss excess [11]: -0.0258; Bliss excess (PEO1 (Ovarian Carcinoma)): 0.0228; Bliss excess [12]: -0.122; Bliss excess [13]: -0.0134; Bliss excess [14]: -0.0078; Bliss excess (EB2 (Burkitt's Lymphoma)): -0.0038; Bliss excess (HCC70 (Breast Carcinoma) [15]): 0.0824; Bliss excess [16]: 0.023; Bliss excess [17]: 0.0337

Q: With `C[C@@H](c1ccc2nccn2c1)n1nnc2ncc(-c3cnn(C)c3)nc21` [Savolitinib] + Cc1c2c(nn1C)CSCc1cc(n(C)n1)CSc1cc(c3ccccc3c1)OCCCc1c(C(=O)O)n(C)c3c-2c(Cl)ccc13 [AZD5991] (first compound max 1 µM, 7x7, partner max 1 µM) as the molecule, how does the “combination Emax” value [1] read?
A: Its value is 0.34.

Q: And the “combination Emax” value [2]?
A: Its value is 0.132.

Q: And the “combination Emax” value (HCC70 (Breast Carcinoma) [3])?
A: The value was 0.844.

Q: And the Bliss excess [4]?
A: The Bliss excess was -0.0537.

Q: What about the Bliss excess [5] of the same molecule?
A: The Bliss excess was -0.0046.

Q: And the Bliss excess [6]?
A: The Bliss excess was -0.0243.

Q: What about the Bliss excess [7] of the same molecule?
A: The Bliss excess was -0.0228.

Q: What about the Bliss excess [8] of the same molecule?
A: The Bliss excess was -0.0358.

Q: What about the Bliss excess (WM1552C (Melanoma)) of the same molecule?
A: The Bliss excess was -0.079.

Q: And the Bliss excess [9]?
A: Its Bliss excess is -0.0699.

Q: What about the Bliss excess [10] of the same molecule?
A: Its Bliss excess is -0.0204.

Q: What about the Bliss excess [11] of the same molecule?
A: Its Bliss excess is -0.0416.

Q: What about the Bliss excess (PEO1 (Ovarian Carcinoma)) of the same molecule?
A: Its Bliss excess is -0.0397.

Q: What about the Bliss excess [12] of the same molecule?
A: Its Bliss excess is -0.0402.

Q: And the Bliss excess [13]?
A: The Bliss excess was -0.025.

Q: What about the Bliss excess [14] of the same molecule?
A: Its Bliss excess is -0.0742.

Q: What about the Bliss excess (EB2 (Burkitt's Lymphoma)) of the same molecule?
A: The Bliss excess was -0.0501.

Q: What about the Bliss excess (HCC70 (Breast Carcinoma) [15]) of the same molecule?
A: Its Bliss excess is -0.0312.

Q: And the Bliss excess [16]?
A: The Bliss excess was 0.0174.

Q: What about the Bliss excess [17] of the same molecule?
A: The Bliss excess was -0.0486.

Q: What does the source list for `CN(CCO)CC[C@H](CSc1ccccc1)Nc1ccc(S(=O)(=O)NC(=O)c2ccc(N3CCC([C@@H](O)c4ccccc4-c4ccc(Cl)cc4)CC3)cc2)cc1S(=O)(=O)C(F)(F)F` [AZD4320] + Cc1cc2ncnn2cc1Nc1ncc2c(n1)n(C1CCOCC1)c(=O)n2C [AZD7648] (first compound max 1 µM, 7x7, partner max 10 µM)?
A: combination Emax [1]: 0.426; combination Emax [2]: 0.182; combination Emax (HCC70 (Breast Carcinoma) [3]): 0.356; Bliss excess [4]: -0.0309; Bliss excess [5]: 0.0018; Bliss excess [6]: -0.0488; Bliss excess [7]: -0.02; Bliss excess [8]: -0.0454; Bliss excess (WM1552C (Melanoma)): -0.0505; Bliss excess [9]: -0.037; Bliss excess [10]: -0.0532; Bliss excess [11]: -0.043; Bliss excess (PEO1 (Ovarian Carcinoma)): -0.0389; Bliss excess [12]: -0.051; Bliss excess [13]: -0.0165; Bliss excess [14]: -0.0477; Bliss excess (EB2 (Burkitt's Lymphoma)): 0.007; Bliss excess (HCC70 (Breast Carcinoma) [15]): -0.01; Bliss excess [16]: -0.0342; Bliss excess [17]: -0.0097

Q: With `Cc1cc2ncnn2cc1Nc1ncc2c(n1)n(C1CCOCC1)c(=O)n2C` [AZD7648] + COc1cc([C@@H]2c3cc4c(cc3[C@@H](O[C@@H]3O[C@@H]5CO[C@@H](C)O[C@H]5[C@H](O)[C@H]3O)[C@H]3COC(=O)[C@H]23)OCO4)cc(OC)c1O [Etoposide] (first compound max 10 µM, 7x7, partner max 10 µM) as the molecule, how does the “combination Emax” value [1] read?
A: Its value is 0.666.

Q: What about the “combination Emax” value [2] of the same molecule?
A: The value was 0.577.

Q: What about the “combination Emax” value (HCC70 (Breast Carcinoma) [3]) of the same molecule?
A: The value was 0.373.

Q: What about the Bliss excess [4] of the same molecule?
A: The Bliss excess was 0.0975.

Q: And the Bliss excess [5]?
A: Its Bliss excess is -0.0132.

Q: What about the Bliss excess [6] of the same molecule?
A: The Bliss excess was 0.0189.

Q: And the Bliss excess [7]?
A: The Bliss excess was -0.0132.

Q: What about the Bliss excess [8] of the same molecule?
A: Its Bliss excess is 0.073.

Q: What about the Bliss excess (WM1552C (Melanoma)) of the same molecule?
A: The Bliss excess was 0.0922.

Q: What about the Bliss excess [9] of the same molecule?
A: The Bliss excess was -0.013.

Q: And the Bliss excess [10]?
A: The Bliss excess was 0.0583.

Q: What about the Bliss excess [11] of the same molecule?
A: Its Bliss excess is 0.0013.

Q: And the Bliss excess (PEO1 (Ovarian Carcinoma))?
A: The Bliss excess was 0.0461.

Q: What about the Bliss excess [12] of the same molecule?
A: The Bliss excess was 0.0472.

Q: What about the Bliss excess [13] of the same molecule?
A: The Bliss excess was 0.066.

Q: What about the Bliss excess [14] of the same molecule?
A: Its Bliss excess is 0.0522.

Q: And the Bliss excess (EB2 (Burkitt's Lymphoma))?
A: Its Bliss excess is 0.0495.

Q: And the Bliss excess (HCC70 (Breast Carcinoma) [15])?
A: The Bliss excess was 0.0677.

Q: What about the Bliss excess [16] of the same molecule?
A: The Bliss excess was -0.0106.

Q: What about the Bliss excess [17] of the same molecule?
A: Its Bliss excess is 0.105.

Q: With `Cc1cc2ncnn2cc1Nc1ncc2c(n1)n(C1CCOCC1)c(=O)n2C` [AZD7648] + CN(C)CCCOc1ccc(-c2ccc3ncc4c(c3c2)n(C2CCOCC2)c(=O)n4C)cn1 [AZD0156] (first compound max 10 µM, 7x7, partner max 1 µM) as the molecule, how does the “combination Emax” value [1] read?
A: The value was 0.468.

Q: What about the “combination Emax” value [2] of the same molecule?
A: Its value is 0.3.

Q: What about the “combination Emax” value (HCC70 (Breast Carcinoma) [3]) of the same molecule?
A: Its value is 0.3.

Q: And the Bliss excess [4]?
A: The Bliss excess was 0.0148.

Q: What about the Bliss excess [5] of the same molecule?
A: Its Bliss excess is 0.0071.

Q: What about the Bliss excess [6] of the same molecule?
A: The Bliss excess was -0.0147.

Q: What about the Bliss excess [7] of the same molecule?
A: Its Bliss excess is -0.0441.

Q: And the Bliss excess [8]?
A: The Bliss excess was 0.0089.

Q: What about the Bliss excess (WM1552C (Melanoma)) of the same molecule?
A: Its Bliss excess is 0.0249.

Q: What about the Bliss excess [9] of the same molecule?
A: Its Bliss excess is -0.0273.

Q: And the Bliss excess [10]?
A: Its Bliss excess is -0.0334.

Q: And the Bliss excess [11]?
A: The Bliss excess was -0.0016.

Q: And the Bliss excess (PEO1 (Ovarian Carcinoma))?
A: Its Bliss excess is -0.0136.

Q: What about the Bliss excess [12] of the same molecule?
A: Its Bliss excess is -0.0146.

Q: And the Bliss excess [13]?
A: Its Bliss excess is 0.0204.

Q: And the Bliss excess [14]?
A: Its Bliss excess is -0.057.

Q: And the Bliss excess (EB2 (Burkitt's Lymphoma))?
A: Its Bliss excess is -0.0217.

Q: And the Bliss excess (HCC70 (Breast Carcinoma) [15])?
A: The Bliss excess was -0.0122.

Q: What about the Bliss excess [16] of the same molecule?
A: Its Bliss excess is 0.033.

Q: What about the Bliss excess [17] of the same molecule?
A: Its Bliss excess is 0.0138.
